# Test results taken from patent publication US20160130278A1 (TAISHO PHARMACEUTICAL CO., LTD, priority 2013, published 2016).
# Target: T1, human type 1 glycine transporter (GlyT1) (Homo sapiens, UniProt P48067)
# T1 construct: T98G cells (glioma cells) expressing human type 1 glycine transporter (GlyT1) were used
# T1 sequence (P48067 1-706): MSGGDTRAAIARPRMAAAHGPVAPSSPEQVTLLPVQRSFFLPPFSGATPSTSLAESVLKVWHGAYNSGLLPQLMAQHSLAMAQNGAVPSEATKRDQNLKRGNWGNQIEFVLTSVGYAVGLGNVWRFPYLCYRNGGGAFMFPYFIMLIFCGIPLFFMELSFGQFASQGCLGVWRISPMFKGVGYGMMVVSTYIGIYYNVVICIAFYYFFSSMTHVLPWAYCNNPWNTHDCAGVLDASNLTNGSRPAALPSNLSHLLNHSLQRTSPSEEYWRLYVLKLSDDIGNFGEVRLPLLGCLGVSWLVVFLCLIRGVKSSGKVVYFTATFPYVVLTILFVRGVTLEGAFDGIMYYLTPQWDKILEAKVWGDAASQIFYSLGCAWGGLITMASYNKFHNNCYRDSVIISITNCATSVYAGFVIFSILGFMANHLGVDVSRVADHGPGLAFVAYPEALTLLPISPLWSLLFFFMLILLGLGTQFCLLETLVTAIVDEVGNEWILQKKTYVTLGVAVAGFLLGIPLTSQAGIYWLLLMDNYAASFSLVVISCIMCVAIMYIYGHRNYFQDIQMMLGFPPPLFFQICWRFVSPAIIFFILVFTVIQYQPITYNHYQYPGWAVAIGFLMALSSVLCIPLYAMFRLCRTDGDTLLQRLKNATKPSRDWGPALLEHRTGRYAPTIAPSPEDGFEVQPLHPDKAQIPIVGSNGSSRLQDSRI
# Assay: Glycine uptake inhibition experiment ([3H]glycine uptake)
# Assay type: cell-based
# Conditions: GlyT1
# In short: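 T98G glioma cells expressing human GlyT1 were pretreated 10 min with compound in HEPES buffer pH 7.4 (0.2% BSA), then incubated with compound plus 250 nM final [3H]glycine for 15 min at room temperature. Intracellular radioactivity was counted after NaOH lysis; 10 μM ALX5407 defined non-specific uptake. IC50 came from 10^−9–10^−5 M curves.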
row,IC50 [nM],SMILES
1,1200,"O=C(NC(c1cccc(F)c1)C1(O)CCC(F)(F)CC1)c1nccc(C(F)(F)F)c1Cl (single isomer, unassigned) [Compound 77, 3-chloro-N-[(4,4-difluoro-1-hydroxycyclohexyl)(3-fluorophenyl)methyl]-4-(trifluoromethyl)pyridine-2-carboxamide]"
2,8.5,"CCn1cc(-c2cccc(C(NC(=O)c3nccc(C(F)(F)F)c3Cl)C3(O)CCCCC3)c2)cn1 (stereo not drawn) [Compound 15, 3-chloro-N-{[3-(1-ethyl-1H-pyrazol-4-yl)phenyl](1-hydroxycyclohexyl)methyl}-4-(trifluoromethyl)pyridine-2-carboxamide]"
3,450,"COc1ccc(Cl)c(C(=O)NC(c2cccc(F)c2Cl)[C@]2(O)CC[C@@H](F)CC2)c1 (single isomer, unassigned) [Compound 293, 2-chloro-N-[(2-chloro-3-fluorophenyl)(cis-4-fluoro-1-hydroxycyclohexyl)methyl]-5-methoxybenzamide]"
4,1100,"O=C(NC(c1cc(Cl)ccn1)C1(O)CCC(F)(F)CC1)c1nccc2ccccc12 (single isomer, unassigned) [Compound 349, N-[(4-chloropyridin-2-yl)(4,4-difluoro-1-hydroxycyclohexyl)methyl]isoquinoline-1-carboxamide]"
5,1400,"[2H]C1([2H])C([2H])([2H])C([2H])([2H])C(O)(C(NC(=O)c2nccc(C(F)(F)F)c2Cl)c2cccc(Cl)c2)C([2H])([2H])C1([2H])[2H] (single isomer, unassigned) [Compound 232, 3-chloro-N-{(3-chlorophenyl)[1-hydroxy(^2H10)cyclohexyl]methyl}-4-(trifluoromethyl)pyridine-2-carboxamide]"
6,410,"O=C(NC(c1cccc(Br)c1)C1(O)CC=CCC1)c1nccc(C(F)(F)F)c1Cl (stereo not drawn) [Compound 142, N-[(3-bromophenyl)(1-hydroxycyclohex-3-en-1-yl)methyl]-3-chloro-4-(trifluoromethyl)pyridine-2-carboxamide]"
7,450,"O=C(NC(c1cccc(-n2ccnn2)c1)C1(O)CCCC1)c1nccc(C(F)(F)F)c1Cl (stereo not drawn) [Compound 78, 3-chloro-N-{(1-hydroxycyclopentyl)[3-(1H-1,2,3-triazol-1-yl)phenyl]methyl}-4-(trifluoromethyl)pyridine-2-carboxamide]"
8,31,"CC(C)n1cc(-c2cccc(C(NC(=O)c3nccc(C(F)(F)F)c3Cl)C3(O)CCC(F)(F)CC3)c2)cn1 (single isomer, unassigned) [Compound 134, 3-chloro-N-[(4,4-difluoro-1-hydroxycyclohexyl){3-[1-(propan-2-yl)-1H-pyrazol-4-yl]phenyl}methyl]-4-(trifluoromethyl)pyridine-2-carboxamide]"
9,5700,"O=C(N[C@@H](c1cccc(Br)c1)C1(O)CCCC1)c1nccc(C(F)(F)F)c1-n1ccnn1 [Compound 71, N-[(S)-(3-bromophenyl)(1-hydroxycyclopentyl)methyl]-3-(1H-1,2,3-triazol-1-yl)-4-(trifluoromethyl)pyridine-2-carboxamide]"
10,1700,"O=C(NC(c1cc(Cl)ccc1Cl)C1(O)CCCC1)c1nccc(C(F)(F)F)c1Cl (single isomer, unassigned) [Compound 113, 3-chloro-N-[(2,5-dichlorophenyl)(1-hydroxycyclopentyl)methyl]-4-(trifluoromethyl)pyridine-2-carboxamide]"
11,910,"O=C(NC(c1cccc(F)c1Cl)[C@]1(O)CC[C@@H](F)CC1)c1ccc(Cl)cc1Cl (single isomer, unassigned) [Compound 264, 2,4-dichloro-N-[(2-chloro-3-fluorophenyl)(cis-4-fluoro-1-hydroxycyclohexyl)methyl]benzamide]"
12,40,"O=C(NC(c1cccc(F)c1Cl)[C@]1(O)CC[C@@H](F)CC1)c1ccc(C(F)(F)F)nc1-n1nccn1 (single isomer, unassigned) [Compound 393, N-[(2-chloro-3-fluorophenyl)(cis-4-fluoro-1-hydroxycyclohexyl)methyl]-2-(2H-1,2,3-triazol-2-yl)-6-(trifluoromethyl)pyridine-3-carboxamide]"
13,88,"O=C(NC(c1cc(Cl)ccn1)[C@]1(O)CC[C@@H](F)CC1)c1cccc(C(F)(F)F)c1Cl (single isomer, unassigned) [Compound 331, 2-chloro-N-[(4-chloropyridin-2-yl)(cis-4-fluoro-1-hydroxycyclohexyl)methyl]-3-(trifluoromethyl)benzamide]"
14,3900,"O=C(NC(c1cccc(-n2cccn2)c1)C1(O)CCCC1)c1nccc(C(F)(F)F)c1Cl (single isomer, unassigned) [Compound 83, 3-chloro-N-{(1-hydroxycyclopentyl)[3-(1H-pyrazol-1-yl)phenyl]methyl}-4-(trifluoromethyl)pyridine-2-carboxamide]"
15,150,"O=C(NC(c1cccc(Cl)n1)C1(O)CCC(F)(F)CC1)c1cccc(C(F)(F)F)c1Cl (single isomer, unassigned) [Compound 352, 2-chloro-N-[(6-chloropyridin-2-yl)(4,4-difluoro-1-hydroxycyclohexyl)methyl]-3-(trifluoromethyl)benzamide]"
16,29,"O=C(NC(c1cccc(F)c1)C1(O)CCCCC1)c1nccc(C(F)(F)F)c1Cl (single isomer, unassigned) [Compound 67, 3-chloro-N-[(3-fluorophenyl)(1-hydroxycyclohexyl)methyl]-4-(trifluoromethyl)pyridine-2-carboxamide]"
17,370,"COc1cccc(C(NC(=O)c2nccc(C(F)(F)F)c2Cl)C2(O)CCCC2)c1 (stereo not drawn) [Compound 51, 3-chloro-N-[(1-hydroxycyclopentyl)(3-methoxyphenyl)methyl]-4-(trifluoromethyl)pyridine-2-carboxamide]"
18,1200,"O=C(NC(c1cccnc1Cl)C1(O)CCC(F)(F)CC1)c1cc(C(F)(F)F)ncc1Cl (single isomer, unassigned) [Compound 342, 5-chloro-N-[(2-chloropyridin-3-yl)(4,4-difluoro-1-hydroxycyclohexyl)methyl]-2-(trifluoromethyl)pyridine-4-carboxamide]"
19,5500,"O=C(NC(c1cccc(F)c1Cl)[C@]1(O)CC[C@@H](F)CC1)c1nccnc1Cl (single isomer, unassigned) [Compound 302, 3-chloro-N-[(2-chloro-3-fluorophenyl)(cis-4-fluoro-1-hydroxycyclohexyl)methyl]pyrazine-2-carboxamide]"
20,350,"CCn1cc(-c2cccc(C(NC(=O)c3cccc(C(F)(F)F)c3C)C3(O)CCC(F)(F)CC3)c2)cn1 (stereo not drawn) [Compound 125, N-{(4,4-difluoro-1-hydroxycyclohexyl)[3-(1-ethyl-1H-pyrazol-4-yl)phenyl]methyl}-2-methyl-3-(trifluoromethyl)benzamide]"
21,150,"O=C(NC(c1cc(Cl)ccn1)C1(O)CCC(F)(F)CC1)c1cccc(C(F)(F)F)c1Cl (single isomer, unassigned) [Compound 351, 2-chloro-N-[(4-chloropyridin-2-yl)(4,4-difluoro-1-hydroxycyclohexyl)methyl]-3-(trifluoromethyl)benzamide]"
22,260,"O=C(NC(c1cc(Cl)ccc1Cl)C1(O)CCC(F)(F)CC1)c1nccc(C(F)(F)F)c1Cl (stereo not drawn) [Compound 148, 3-chloro-N-[(2,5-dichlorophenyl)(4,4-difluoro-1-hydroxycyclohexyl)methyl]-4-(trifluoromethyl)pyridine-2-carboxamide]"
23,66,"O=C(NC(c1ccccc1Cl)C1(O)CCCC1)c1nccc(C(F)(F)F)c1Cl (stereo not drawn) [Compound 44, 3-chloro-N-[(2-chlorophenyl)(1-hydroxycyclopentyl)methyl]-4-(trifluoromethyl)pyridine-2-carboxamide]"
24,21,"O=C(NC(c1cccc(Cl)n1)C1(O)CCCC1)c1nccc(C(F)(F)F)c1Cl (stereo not drawn) [Compound 383, 3-chloro-N-[(6-chloropyridin-2-yl)(1-hydroxycyclopentyl)methyl]-4-(trifluoromethyl)pyridine-2-carboxamide]"
25,270,"O=C(NC(c1ccc(F)c(Cl)c1)C1(O)CCCC1)c1nccc(C(F)(F)F)c1Cl (single isomer, unassigned) [Compound 97, 3-chloro-N-[(3-chloro-4-fluorophenyl)(1-hydroxycyclopentyl)methyl]-4-(trifluoromethyl)pyridine-2-carboxamide]"
26,720,"CCn1cc(-c2cccc(C(NC(=O)c3cccc(C)c3Cl)C3(O)CCC(F)(F)CC3)c2)cn1 (stereo not drawn) [Compound 126, 2-chloro-N-{(4,4-difluoro-1-hydroxycyclohexyl)[3-(1-ethyl-1H-pyrazol-4-yl)phenyl]methyl}-3-methylbenzamide]"
27,290,"O=C(NC(c1cccc(-c2cncnc2)c1)C1(O)CCCC1)c1cccc(C(F)(F)F)c1Cl (stereo not drawn) [Compound 7, 2-chloro-N-{(1-hydroxycyclopentyl)[3-(pyrimidin-5-yl)phenyl]methyl}-3-(trifluoromethyl)benzamide]"
